From US9688676B2, “Tyrosine kinase inhibitors” (PRINCIPIA BIOPHARMA INC., priority 2015, dated 2017)

Assays:
[1] = target: T1, BTK (Homo sapiens (Human), UniProt Q06187); test: Determination of drug-kinase residence time (TR-FRET tracer competition, occupancy after washout); type: binding; details: 1.5 μM compound, 500 nM BTK; for % occupany at 1 h: 1 h of washout; for % occupany at 6 h: 6 h of washout; for % occupany at 24 h: 24 h of washout
Protocol: The experiment was conducted in a buffer consisting of 50 mM Hepes pH 7.5, 10 mM MgCl2, 0.01% Triton X-100, and 1 mM EGTA.
The mixture was then diluted 5-fold by addition of 40 μL of buffer. […] In order to probe for reversibility of the kinase-compound binding interaction, a competition solution containing both a high affinity fluorescent tracer and an antibody coupled to Europium was prepared. […] The competition solution also contained 80 nM of an Anti-polyhistidine antibody coupled to Europium (Invitrogen Cat. #PV5596) which is designed to bind the polyhistidine purification tag in BTK.
It is to be expected that covalent and slow dissociating inhibitors will block binding of the tracer while rapidly dissociating non-covalent inhibitors will not. […] Data were plotted at percentage of signal obtained in the absence of competitor compound. The background signal was obtained by omission of BTK from the reaction. […] If the compound is a reversible covalent inhibitor, the tracer will bind the target as the compound dissociates from the target.

[2] = target: T1, BTK; test: BTK enzymatic activity assay (Caliper-based kinase assay); type: biochemical; details: human recombinant BTK 0.5 nM, ATP 16 μM, 3 h room temperature
Protocol: A Caliper-based kinase assay (Caliper Life Sciences, Hopkinton, Mass.) was used to measure inhibition of BTK kinase activity of a compound of the present disclosure. […] The reaction was then terminated with EDTA, final concentration 20 mM and the phosphorylated reaction product was quantified on a Caliper Desktop Profiler (Caliper LabChip 3000). […] This value is presented as the IC50.

T1 sequence (Q06187 whole entry): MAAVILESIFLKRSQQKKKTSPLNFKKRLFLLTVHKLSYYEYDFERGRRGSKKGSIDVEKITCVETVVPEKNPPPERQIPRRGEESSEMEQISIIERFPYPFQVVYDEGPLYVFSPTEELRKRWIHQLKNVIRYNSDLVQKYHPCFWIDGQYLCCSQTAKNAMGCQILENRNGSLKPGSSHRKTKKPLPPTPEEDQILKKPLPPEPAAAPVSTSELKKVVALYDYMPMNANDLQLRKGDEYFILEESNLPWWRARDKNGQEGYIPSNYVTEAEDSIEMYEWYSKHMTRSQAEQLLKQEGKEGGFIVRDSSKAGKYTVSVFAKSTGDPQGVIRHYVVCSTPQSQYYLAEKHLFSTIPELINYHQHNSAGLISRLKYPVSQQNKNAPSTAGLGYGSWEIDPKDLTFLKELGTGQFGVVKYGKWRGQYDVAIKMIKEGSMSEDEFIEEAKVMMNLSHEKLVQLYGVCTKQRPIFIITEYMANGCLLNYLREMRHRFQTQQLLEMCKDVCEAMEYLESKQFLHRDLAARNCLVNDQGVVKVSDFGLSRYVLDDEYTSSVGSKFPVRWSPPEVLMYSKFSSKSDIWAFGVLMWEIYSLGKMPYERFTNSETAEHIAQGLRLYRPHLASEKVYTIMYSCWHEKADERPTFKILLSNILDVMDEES

Row | % occupany at 1 h [1] | % occupany at 6 h [1] | % occupany at 24 h [1] | IC50 [2] | Compound
1 | 90.005% | 66.344% | 18.2% | 7.8 nM | CC(C)(C=C(C#N)C(=O)N1CCC[C@@H](n2c(=O)n(-c3ccc(Oc4ccccc4)cc3)c3c(N)nccc32)C1)N1CCOCC1 [Compound 4, (R)-2-(3-(4-amino-2-oxo-3-(4-phenoxyphenyl)-2,3-dihydro-1H-imidazo[4,5-c]pyridin-1-yl)piperidine-1-carbonyl)-4-methyl-4-morpholinopent-2-enenitrile]
2 | 94.404% | 86.64% | 67.505% | 5.9 nM | CC(C)(C=C(C#N)C(=O)N1CCC[C@@H](n2c(=O)n(-c3ccc(Oc4ccccc4)cc3)c3c(N)nccc32)C1)N1CCN(CC(F)(F)F)CC1 [Compound 6, (R)-2-(3-(4-amino-2-oxo-3-(4-phenoxyphenyl)-2,3-dihydro-1H-imidazo[4,5-c]pyridin-1-yl)piperidine-1-carbonyl)-4-methyl-4-(4-(2,2,2-trifluoroethyl)piperazin-1-yl)pent-2-enenitrile]
3 | 93.363% | 70.733% | 31.4% | 7.8 nM | COCCN1CCN(C(C)(C)C=C(C#N)C(=O)N2CCC[C@@H](n3c(=O)n(-c4ccc(Oc5ccccc5)cc4)c4c(N)nccc43)C2)CC1 [Compound 9, (R)-2-(3-(4-amino-2-oxo-3-(4-phenoxyphenyl)-2,3-dihydro-1H-imidazo[4,5-c]pyridin-1-yl)piperidine-1-carbonyl)-4-(4-(2-methoxyethyl)piperazin-1-yl)-4-methylpent-2-enenitrile]
4 | 93.065% | 73.513% | 31.704% | 3.7 nM | CN1CCN(C(C)(C)C=C(C#N)C(=O)N2CCC[C@@H](n3c(=O)n(-c4ccc(Oc5ccccc5)cc4)c4c(N)nccc43)C2)CC1=O [Compound 18, (R)-2-(3-(4-amino-2-oxo-3-(4-phenoxyphenyl)-2,3-dihydro-1H-imidazo[4,5-c]pyridin-1-yl)piperidine-1-carbonyl)-4-methyl-4-(4-methyl-3-oxopiperazin-1-yl)pent-2-enenitrile]
5 | 95.906% | 96.44% | 90.847% | 6.6 nM | CC(C)(C)C=C(C#N)C(=O)N1CCC[C@H]1Cn1c(=O)n(-c2ccc(Oc3ccccc3)cc2)c2c(N)nccc21 [Compound 12, (S)-2-(2-((4-amino-2-oxo-3-(4-phenoxyphenyl)-2,3-dihydro-1H-imidazo[4,5-c]pyridin-1-yl)methyl)pyrrolidine-1-carbonyl)-4,4-dimethylpent-2-enenitrile]
6 | 81.247% | 78.623% | 74.744% | 13.3 nM | CC#CC(=O)N1CCC[C@@H](n2c(=O)n(-c3ccc(Oc4ccccc4)cc3)c3c(N)nccc32)C1 [Compound 17, (R)-4-amino-1-(1-(but-2-ynoyl)piperidin-3-yl)-3-(4-phenoxyphenyl)-1H-imidazo[4,5-c]pyridin-2(3H)-one]
7 | 61.932% | −1.3946% | −12.344% | 1.8 nM | CN1CCC(C(C)(C)C=C(C#N)C(=O)N2CCC[C@@H](n3c(=O)n(-c4ccc(Oc5ccccc5)cc4)c4c(N)nccc43)C2)CC1 [Compound 7, (R)-2-(3-(4-amino-2-oxo-3-(4-phenoxyphenyl)-2,3-dihydro-1H-imidazo[4,5-c]pyridin-1-yl)piperidine-1-carbonyl)-4-methyl-4-(1-methylpiperidin-4-yl)pent-2-enenitrile]
8 | 91.481% | 76.396% | 22.922% | 17.2 nM | CC(C)(C=C(C#N)C(=O)N1CCC[C@H]1Cn1c(=O)n(-c2ccc(Oc3ccccc3)cc2)c2c(N)nccc21)N1CCOCC1 [Compound 14, (S)-2-(2-((4-amino-2-oxo-3-(4-phenoxyphenyl)-2,3-dihydro-1H-imidazo[4,5-c]pyridin-1-yl)methyl)pyrrolidine-1-carbonyl)-4-methyl-4-morpholinopent-2-enenitrile]
9 | 65.626% | 58.519% | 46.073% | 21.6 nM | CC1(C=C(C#N)C(=O)N2CCC[C@@H](n3c(=O)n(-c4ccc(Oc5ccccc5)cc4)c4c(N)nccc43)C2)CCC1 [Compound 3, (R)-2-(3-(4-amino-2-oxo-3-(4-phenoxyphenyl)-2,3-dihydro-1H-imidazo[4,5-c]pyridin-1-yl)piperidine-1-carbonyl)-3-(1-methylcyclobutyl)acrylonitrile]
10 | 93.335% | 89.195% | 80.873% | 23.9 nM | N#CC(=CC1CCC1)C(=O)N1CCC[C@@H](n2c(=O)n(-c3ccc(Oc4ccccc4)cc3)c3c(N)nccc32)C1 [Compound 8, (R)-2-(3-(4-amino-2-oxo-3-(4-phenoxyphenyl)-2,3-dihydro-1H-imidazo[4,5-c]pyridin-1-yl)piperidine-1-carbonyl)-3-cyclobutylacrylonitrile]
11 | 93.602% | 85.49% | 65.826% | 9.1 nM | N#CC(=CC1CCOCC1)C(=O)N1CCC[C@@H](n2c(=O)n(-c3ccc(Oc4ccccc4)cc3)c3c(N)nccc32)C1 [Compound 2, (R)-2-(3-(4-amino-2-oxo-3-(4-phenoxyphenyl)-2,3-dihydro-1H-imidazo[4,5-c]pyridin-1-yl)piperidine-1-carbonyl)-3-(tetrahydro-2H-pyran-4-yl)acrylonitrile]
12 | 93.773% | 83.103% | 57.488% | 2.5 nM | CC(C)(C=C(C#N)C(=O)N1CCC[C@@H](n2c(=O)n(-c3ccc(Oc4ccccc4)cc3)c3c(N)nccc32)C1)N1CCN(C2COC2)CC1 [Compound 5, (R)-2-(3-(4-amino-2-oxo-3-(4-phenoxyphenyl)-2,3-dihydro-1H-imidazo[4,5-c]pyridin-1-yl)piperidine-1-carbonyl)-4-methyl-4-(4-(oxetan-3-yl)piperazin-1-yl)pent-2-enenitrile]
13 | 94.392% | 77.985% | 49.145% | 7 nM | COC(=O)N1CCN(C(C)(C)C=C(C#N)C(=O)N2CCC[C@@H](n3c(=O)n(-c4ccc(Oc5ccccc5)cc4)c4c(N)nccc43)C2)CC1 [Compound 10, (R)-methyl 4-(5-(3-(4-amino-2-oxo-3-(4-phenoxyphenyl)-2,3-dihydro-1H-imidazo[4,5-c]pyridin-1-yl)piperidin-1-yl)-4-cyano-2-methyl-5-oxopent-3-en-2-yl)piperazine-1-carboxylate]
14 | 91.54% | 83.963% | 49.152% | 21.1 nM | CC(C)(C=C(C#N)C(=O)N1CCC[C@H]1Cn1c(=O)n(-c2ccc(Oc3ccccc3)cc2)c2c(N)nccc21)N1CCN(C2COC2)CC1 [Compound 13, (S)-2-(2-((4-amino-2-oxo-3-(4-phenoxyphenyl)-2,3-dihydro-1H-imidazo[4,5-c]pyridin-1-yl)methyl)pyrrolidine-1-carbonyl)-4-methyl-4-(4-(oxetan-3-yl)piperazin-1-yl)pent-2-enenitrile]
15 | 91.927% | 85.356% | 50.188% | 72.3 nM | COC(=O)N1CCN(C(C)(C)C=C(C#N)C(=O)N2CCC[C@H]2Cn2c(=O)n(-c3ccc(Oc4ccccc4)cc3)c3c(N)nccc32)CC1 [Compound 15, (S)-methyl 4-(5-(2-((4-amino-2-oxo-3-(4-phenoxyphenyl)-2,3-dihydro-1H-imidazo[4,5-c]pyridin-1-yl)methyl)pyrrolidin-1-yl)-4-cyano-2-methyl-5-oxopent-3-en-2-yl)piperazine-1-carboxylate]
16 | 97.036% | 82.199% | 70.975% | 8.2 nM | CC(C)(C)C=C(C#N)C(=O)N1CCC[C@@H](n2c(=O)n(-c3ccc(Oc4ccccc4)cc3)c3c(N)nccc32)C1 [Compound 1, (R)-2-(3-(4-amino-2-oxo-3-(4-phenoxyphenyl)-2,3-dihydro-1H-imidazo[4,5-c]pyridin-1-yl)piperidine-1-carbonyl)-4,4-dimethylpent-2-enenitrile]
